Literature values as cited in patent publication US11465999B2, “Process for preparing Alectinib or a pharmaceutically acceptable salt thereof” (FRESENIUS KABI ONCOLOGY LIMITED, priority 2017, dated 2022).
Structures can show the parent of a compound that is named as a salt.

Key:
[1] = in water across the whole pH range and in different solvents
[2] = high humidity: absorbs moisture to form a tetrahydrate; low humidity: dehydrates to anhydrate; drying

Row | SMILES | solubility [1] | stability of crystalline form [2]
1 | CCc1cc2c(cc1N1CCC(N3CCOCC3)CC1)C(C)(C)c1[nH]c3cc(C#N)ccc3c1C2=O [Alectinib hydrochloride] | insoluble | –
2 | CCc1cc2c(cc1N1CCC(N3CCOCC3)CC1)C(C)(C)c1[nH]c3cc(C#N)ccc3c1C2=O.Cl [type II] | – | not stable
3 | CCc1cc2c(cc1N1CCC(N3CCOCC3)CC1)C(C)(C)c1[nH]c3cc(C#N)ccc3c1C2=O.Cl [type III] | – | converts to type II on drying
